Results from patent publication EP0326922A2 (priority 1988, dated 1989).
Converted amounts (≈) assume the structure as drawn.

Assays:
[1] = solvents in which the substance dissolves, in words
Alternaria solani 5 = experiment: MIC (MHK) determination; type: cell-based; conditions: read-out: MHK-Werte
Botrytis cinerea 47 = experiment: MIC (MHK) determination; type: cell-based; conditions: read-out: MHK-Werte
Candida albicans = experiment: MIC (MHK) determination; type: cell-based; conditions: read-out: MHK-Werte
Botrytis cinerea 57 = experiment: MIC (MHK) determination; type: cell-based; conditions: read-out: MHK-Werte
[2] = system: Trichophyton mentagrophytes; experiment: MIC (MHK) determination; type: cell-based; conditions: read-out: MHK-Werte
Staph. aureus 209 P = experiment: MIC (MHK) determination; type: cell-based; conditions: Staphylococcus aureus, read-out: MHK-Werte
Saccharomyces cerevisiae = experiment: MIC (MHK) determination; type: cell-based; conditions: read-out: MHK-Werte
Fusarium culmorum 100 = experiment: MIC (MHK) determination; type: cell-based; conditions: read-out: MHK-Werte
[3] = system: Penicillium digitatum 135; experiment: MIC (MHK) determination; type: cell-based; conditions: read-out: MHK-Werte
Cercospora beticola 71 = experiment: MIC (MHK) determination; type: cell-based; conditions: read-out: MHK-Werte
E. coli 9632 = experiment: MIC (MHK) determination; type: cell-based; conditions: Escherichia coli, read-out: MHK-Werte
Cladosporuim resinae = experiment: MIC (MHK) determination; type: cell-based; conditions: read-out: MHK-Werte
Aspergillus niger = experiment: MIC (MHK) determination; type: cell-based; conditions: read-out: MHK-Werte
Pyricularia oryzae 154 = experiment: microbe, parasite or virus in culture; type: cell-based; conditions: Pyricularia oryzae, 154, read-out: MHK-Werte
Hefe 5060 = experiment: MIC (MHK) determination; type: cell-based; conditions: read-out: MHK-Werte
Botrytis cinerea 16 = experiment: MIC (MHK) determination; type: cell-based; conditions: read-out: MHK-Werte

In the case of `COC(=O)/C=C(/C=C/C(C)C/C=C/CC/C=C/C=C\CC(OC)/C(C)=C\C=C(/C)C(=O)OC)CC(=O)OC` (stereo not drawn) [Isobongkrekinsäure-trimethylester], the Löslichkeit [1] is reported as “CHCl3, CH2Cl2,MeOH, Aceton, Äthylacetat und Petroläther”.

For `COC(C/C=C\C=C\CC/C=C/CC(C)/C=C/C(=C/C(=O)O)CC(=O)O)/C(C)=C\C=C(/C)C(=O)O` (stereo not drawn) [Isobongkrekinsäure, 3-Carboxymethyl-17-methoxy-6,18,21-trimethyldocosa-2E,4E,8E,12E,14Z,18Z,20E-hepta-en-1,22-disäure], the MIC (Alternaria solani 5) was 62.5 µg/mL (≈ 128 µM), the MIC (Botrytis cinerea 47) was 15.6 µg/mL (≈ 32.1 µM) and the MIC (Candida albicans) was > 125 µg/mL. The MIC (Botrytis cinerea 57) was 31.2 µg/mL (≈ 64.1 µM), the MIC [2] was 125 µg/mL (≈ 257 µM) and the MIC (Staph. aureus 209 P) was 125 µg/mL (≈ 257 µM). For the same molecule, the Löslichkeit [1] was “Wäßriges Alkali, schwerlöslich in MeOH und Wasser”, the MIC (Saccharomyces cerevisiae) was > 125 µg/mL and the MIC (Fusarium culmorum 100) was 7.8 µg/mL (≈ 16 µM). The MIC [3] was 62.5 µg/mL (≈ 128 µM), the MIC (Cercospora beticola 71) was 15.6 µg/mL (≈ 32.1 µM) and the MIC (E. coli 9632) was > 125 µg/mL. It also gave an MIC (Cladosporuim resinae) of 250 µg/mL (≈ 514 µM), an MIC (Aspergillus niger) of 62.5 µg/mL (≈ 128 µM) and an MIC (Pyricularia oryzae 154) of 31.2 µg/mL (≈ 64.1 µM). For the same molecule, the MIC (Hefe 5060) was > 125 µg/mL and the MIC (Botrytis cinerea 16) was 62.5 µg/mL (≈ 128 µM).
